Reference: publication PMC2997738 (2008)

Columns and labels:
[1] = test system: GdG-3 (RNA, riboswitch) GGACAUACAAUCGCGUGGAUAUGGCACGCAAGAUCCCGCCGGGCACCGUAAAUGUCCGACUAUGUCC; test: ITC; conditions: 100 mM KCl, 20 mM MgCl2; 50 mM K+-Hepes pH 7.5, 30 °C; apparent
[2] = test system: Wild-type G-box B. subtilis xpt–pbuX (xpt) (RNA, riboswitch) GGACAUAUAAUCGCGUGGAUAUGGCACGCAAGUUUCUACCGGGCACCGUAAAUGUCCGACUAUGUCC; test: ITC; conditions: 100 mM KCl, 20 mM MgCl2; 50 mM K+-Hepes pH 7.5, 30 °C; apparent

In the case of `Nc1nc2[nH]cnc2c(=O)[nH]1`, the “KD,G” value [1] is reported as 1200 ± 700 µM.

With `Nc1nc2c(ncn2[C@@H]2O[C@H](CO)[C@@H](O)[C@H]2O)c(=O)[nH]1` the “KD,rG” value [1] was 121 ± 8 µM.

For `Nc1nc2c(ncn2[C@H]2C[C@H](O)[C@@H](CO)O2)c(=O)[nH]1`, the “KD,dG” value [1] was 39 ± 1 µM and the “KD,dG” value [2] was 12 ± 1 µM.
